Measured values: DBAASP
Values after ≈ are worked out from the molar mass of the structure shown. Values joined by “and” are separate entries in the source; they are usually repeats but may differ in a detail not shown here. Identical values can stand only once.

What was measured:
Assay in all cases: ≥ marks a high value that may be exact or a test limit, other limits are often not marked, values filed in µg/mL are converted to µM
[1] = test system: Escherichia coli ATCC 25922
[2] = test system: Staphylococcus aureus ATCC 25923
[3] = test system: Pseudomonas aeruginosa ATCC 27853
Escherichia coli = test system: Escherichia coli

Structure (SMILES)	MIC [1]	MIC [2] [µM]	MIC [3] [µM]	MIC (Escherichia coli) [µM]
CC[C@H](C)[C@H](NC(=O)[C@H](CCCN=C(N)N)NC(=O)[C@H](CO)NC(=O)[C@H](CC(C)C)NC(=O)[C@H](CC(C)C)NC(=O)CN)C(=O)N[C@@H](CCCCN)C(=O)N[C@H](C(=O)N[C@@H](CC(C)C)C(=O)N[C@@H](CC(C)C)C(N)=O)[C@@H](C)O [GLLSRIKTLL]	100 µM (≈ 111 µg/mL)	–	–	–
CC[C@H](C)[C@H](NC(=O)[C@H](C)NC(=O)CNC(=O)[C@H](C)NC(=O)[C@H](CCCCN)NC(=O)[C@H](CO)NC(=O)[C@H](C)NC(=O)[C@H](CCSC)NC(=O)CN)C(=O)N[C@@H](C)C(=O)NCC(=O)N[C@@H](CCCCN)C(=O)N[C@H](C(=O)N[C@@H](C)C(=O)N[C@@H](CCCCN)C(=O)N[C@H](C(=O)N[C@@H](C)C(=O)N[C@@H](Cc1c[nH]c2ccccc12)C(=O)N[C@@H](CCCCN)C(=O)N[C@@H](C)C(=O)N[C@@H](CC(C)C)C(N)=O)C(C)C)[C@@H](C)CC [GMASKAGAIAGKIAKVAWKAL]	8.87 µM (≈ 18.1 µg/mL)	–	–	–
CC[C@H](C)[C@H](N)C(=O)N[C@H](C(=O)N[C@@H](CCCCN)C(=O)N[C@@H](CCCCN)C(=O)N[C@@H](Cc1ccccc1)C(=O)N[C@@H](CC(C)C)C(=O)N[C@@H](Cc1cnc[nH]1)C(=O)N[C@@H](CO)C(=O)N[C@H](C(=O)N[C@@H](Cc1c[nH]c2ccccc12)C(=O)N[C@@H](CCCCN)C(=O)N[C@@H](Cc1ccccc1)C(=O)NCC(=O)N[C@@H](CCCCN)C(=O)N[C@@H](C)C(=O)N[C@@H](Cc1ccccc1)C(=O)N[C@H](C(=O)NCC(=O)N[C@@H](CCC(=O)O)C(=O)N[C@H](C(=O)N[C@@H](CCSC)C(=O)N[C@@H](CC(N)=O)C(=O)N[C@H](C(=O)O)[C@@H](C)CC)[C@@H](C)CC)C(C)C)[C@@H](C)CC)[C@@H](C)CC [IIKKFLHSIWKFGKAFVGEIMNI]	2 µM (≈ 5.44 µg/mL)	–	–	–
CC[C@H](C)[C@H](NC(=O)[C@H](Cc1ccccc1)NC(=O)[C@H](CCCCN)NC(=O)[C@H](CC(C)C)NC(=O)[C@H](CC(C)C)NC(=O)[C@@H](N)CCCCN)C(=O)N[C@@H](CCCCN)C(=O)N[C@H](C(=O)N[C@@H](CC(C)C)C(=O)N[C@@H](CC(C)C)C(N)=O)[C@@H](C)O [KLLKFIKTLL]	2.47 µM (≈ 3 µg/mL)	5.75 (≈ 6.99 µg/mL)	–	–
CC[C@H](C)[C@H](NC(=O)CNC(=O)[C@H](CO)NC(=O)[C@H](CCCN=C(N)N)NC(=O)[C@@H](NC(=O)CNC(=O)[C@H](Cc1c[nH]c2ccccc12)NC(=O)[C@@H](N)CC(C)C)[C@@H](C)O)C(=O)N[C@@H](CCC(N)=O)C(=O)N1CCC[C@H]1C(N)=O [LWGTRSGIQP]	> 100 µM	> 100	> 100	–
CC[C@H](C)[C@H](NC(=O)[C@H](Cc1cnc[nH]1)NC(=O)[C@H](CCCN=C(N)N)NC(=O)[C@H](Cc1c[nH]c2ccccc12)NC(=O)[C@@H](NC(=O)[C@H](CCCN=C(N)N)NC(=O)[C@H](CCCCN)NC(=O)[C@H](C)NC(=O)CNC(=O)[C@H](CCCN=C(N)N)NC(=O)[C@H](CCSC)NC(=O)[C@H](C)NC(=O)[C@@H](N)CC(N)=O)C(C)C)C(N)=O [NAMRGAKRVWRHI]	44.3 µM and 62.7 µM	–	–	–
CC(C)[C@H](NC(=O)[C@H](C)NC(=O)[C@@H](N)CCC(N)=O)C(=O)N[C@@H](CCC(=O)O)C(=O)N[C@@H](C)C(=O)N[C@@H](CCC(N)=O)C(=O)N[C@@H](CCCCN)C(=O)O [QAVEAQK]	1620 µM (≈ 1250 µg/mL)	809 (≈ 625 µg/mL)	–	–
CC(C)[C@H](N)C(=O)N[C@H]1CSSC[C@@H](C(=O)N[C@H](C(=O)NCC(=O)N[C@@H](CCCN=C(N)N)C(=O)O)C(C)C)NC(=O)[C@H](C(C)C)NC(=O)[C@@H]2CSSC[C@H](NC(=O)[C@H](Cc3ccc(O)cc3)NC1=O)C(=O)N[C@@H](CCCN=C(N)N)C(=O)N[C@@H](CCCN=C(N)N)C(=O)N[C@@H](CCCN=C(N)N)C(=O)N[C@@H](Cc1ccccc1)C(=O)N2 [VCYCRRRFCVCVGR]	–	–	–	0.349 (≈ 0.599 µg/mL)
CC(C)C[C@H](NC(=O)[C@H](Cc1ccccc1)NC(=O)[C@@H]1CCCN1C(=O)[C@H](Cc1c[nH]c2ccccc12)NC(=O)[C@H](Cc1ccc(O)cc1)NC(=O)[C@H](Cc1ccc(O)cc1)NC(=O)[C@@H]1CCCN1C(=O)[C@H](Cc1ccccc1)NC(=O)[C@H](CCCN=C(N)N)NC(=O)[C@H](CCCN=C(N)N)NC(=O)[C@@H](N)C(C)C)C(=O)N[C@@H](CCCN=C(N)N)C(=O)N[C@@H](CCCN=C(N)N)C(N)=O [VRRFPYYWPFLRR]	32 µM (≈ 59.4 µg/mL)	–	–	–
NC(=O)[C@H](Cc1c[nH]c2ccccc12)NC(=O)[C@H](CCCN=C(N)N)NC(=O)[C@H](CCCN=C(N)N)NC(=O)[C@@H](N)Cc1c[nH]c2ccccc12 [WRRW]	> 285 µM	285 (≈ 200 µg/mL)	–	–
NC(=O)[C@H](Cc1ccc(O)cc1)NC(=O)[C@H](CCCN=C(N)N)NC(=O)[C@H](Cc1c[nH]c2ccccc12)NC(=O)[C@H](CCCN=C(N)N)NC(=O)[C@@H](N)Cc1c[nH]c2ccccc12 [WRWRY]	115 µM (≈ 99.9 µg/mL)	57.7 (≈ 49.9 µg/mL)	–	–
